# ChEMBL document CHEMBL3351687, “Crystallographic and receptor binding characterization of Plasmodium falciparum macrophage migration inhibitory factor complexed to two potent inhibitors” (J Med Chem, 2014)
# The source made the active and inactive calls. The rule behind the calls is not given here.
# Tests used:
# Plasmodium falciparum = assay: Inhibition of purified full-length biotinylated-Plasmodium falciparum macrophage migration inhibitory factor binding to human sCD74 at 2.5 uM after 45 mins
# [1] = target: T1, Macrophage migration inhibitory factor (Homo sapiens) (UniProt P14174); assay: Inhibition of recombinant human macrophage migration inhibitory factor binding to human ectodomain CD74 at 0.1 to 2.5 uM
# T1 sequence (whole entry): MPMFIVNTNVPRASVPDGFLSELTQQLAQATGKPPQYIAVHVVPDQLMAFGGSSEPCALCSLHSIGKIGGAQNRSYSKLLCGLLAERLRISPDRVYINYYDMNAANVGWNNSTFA
SMILES,inhibition (Plasmodium falciparum),inhibition [1]
Cc1cc(Oc2cccc(O)c2)cc(-c2ccccc2)n1,25%,inactive
COc1ccc(-c2cc(Oc3cc(C)cc(OC)c3)cc(C)n2)cc1,75%,inactive
